Test results: patent US10233182B2, “Substituted spirocyclic inhibitors of autotaxin” (X-Rx, Inc., priority 2014, dated 2019)
Counter-ions that a name gives are not always drawn.

Target: Autotaxin (Homo sapiens (Human), UniProt Q13822)
Experiment: Autotaxin LPC Cascade Assay
Format: biochemical
Details: Autotaxin 5 nM, LPC 100 μM, choline oxidase/HRP/Ampliflu Red fluorescence read-out, 2% DMSO, RT; read-out: IC50 ATX Activity
Procedure: Autotaxin LPC Cascade Assay:
HA130 and Test Compounds:
Prepare a 1 mM stock of HA130 and a 3 mM stock of each compound in 100% DMSO. Perform a 1:3 serial dilution in DMSO (transfer 5 l of compound to 10 l of DMSO). Add 240 l of buffer to generate a top working concentration of 40 µM (HA130) and 120 µM (test compound) in 4% DMSO.
Ampliflu Red—Prepare a stock of 5 mM from 100 mM in 100% DMSO. Further dilute to a working concentration of 400 μM in buffer (8% DMSO).
Together with compound this yields a 2% DMSO final concentration.
Choline Oxidase/HRP—0.8 U/mL CO and 8 U/mL HRP.
Incubate for 10 mins at RT. Add 5 µl of LPC and incubate for 1 hr on the plate shaker. Prepare the CO/HRP and AR immediately prior to use. Add 2.5 l of CO/HRP and follow with 2.5 l AR. Note order of addition, CO/HRP mix before AR. Read fluorescence intensity (ex/em: 530/590 nm) kinetically for 30 min at RT on the Tecan M1000.

SMILES	IC50
COc1cccc(N2C(=O)N(C)C(=O)C23CCN(C(=O)[C@H](NC(=O)c2cc(C(F)(F)F)ccc2F)C(C)C)CC3)c1 [Example 10, (R)-2-Fluoro-N-(1-(1-(3-methoxyphenyl)-3-methyl-2,4-dioxo-1,3,8-triazaspiro[4.5]decan-8-yl)-3-methyl-1-oxobutan-2-yl)-5-(trifluoromethyl)benzamide]	< 0.5 µM
CC(C)[C@@H](NC(=O)c1cc(C(F)(F)F)ccc1F)C(=O)N1CCC2(CC1)C(=O)N(C)C(=O)N2c1ccc2oc(=O)n(C)c2c1 [Example 11, (R)-2-Fluoro-N-(3-methyl-1-(3-methyl-1-(3-methyl-2-oxo-2,3-dihydrobenzo[d]oxazol-5-yl)-2,4-dioxo-1,3,8-triazaspiro[4.5]decan-8-yl)-1-oxobutan-2-yl)-5-(trifluoromethyl)benzamide]	≥ 1 µM
CC(C)[C@@H](NC(=O)c1cc(C(F)(F)F)ccc1F)C(=O)N1CCC2(CC1)C(=O)N(C)C(=O)N2c1ccc2c(cnn2C)c1 [Example 12, (R)-2-Fluoro-N-(3-methyl-1-(3-methyl-1-(1-methyl-1H-indazol-5-yl)-2,4-dioxo-1,3,8-triazaspiro[4.5]decan-8-yl)-1-oxobutan-2-yl)-5-(trifluoromethyl)benzamide]	< 0.5 µM
CC(C)[C@@H](NC(=O)c1cc(C(F)(F)F)ccc1F)C(=O)N1CCC2(CC1)C(=O)N(C)C(=O)N2c1ccc2nn(C)cc2c1 [Example 13, (R)-2-Fluoro-N-(3-methyl-1-(3-methyl-1-(2-methyl-2H-indazol-5-yl)-2,4-dioxo-1,3,8-triazaspiro[4.5]decan-8-yl)-1-oxobutan-2-yl)-5-(trifluoromethyl)benzamide]	< 0.5 µM
CC(C)[C@@H](NC(=O)c1cc(C(F)(F)F)ccc1F)C(=O)N1CCC2(CC1)C(=O)N(C)C(=O)N2c1ccc2nccn2c1 [Example 14, (R)-2-Fluoro-N-(1-(1-(imidazo[1,2-a]pyridin-6-yl)-3-methyl-2,4-dioxo-1,3,8-triazaspiro[4.5]decan-8-yl)-3-methyl-1-oxobutan-2-yl)-5-(trifluoromethyl)benzamide trifluoroacetic Acid Salt]	< 0.5 µM
CC(C)[C@@H](NC(=O)c1cc(C(F)(F)F)ccc1F)C(=O)N1CCC2(CC1)C(=O)N(C)C(=O)N2c1cccc(S(C)(=O)=O)c1 [Example 15, (R)-2-Fluoro-N-(3-methyl-1-(3-methyl-1-(3-(methylsulfonyl)phenyl)-2,4-dioxo-1,3,8-triazaspiro[4.5]decan-8-yl)-1-oxobutan-2-yl)-5-(trifluoromethyl)benzamide]	≥ 1 µM
CC(C)[C@@H](NC(=O)c1cc(C(F)(F)F)ccc1F)C(=O)N1CCC2(CC1)C(=O)N(C)C(=O)N2c1ccn(C)n1 [Example 16, (R)-2-Fluoro-N-(3-methyl-1-(3-methyl-1-(1-methyl-1H-pyrazol-3-yl)-2,4-dioxo-1,3,8-triazaspiro[4.5]decan-8-yl)-1-oxobutan-2-yl)-5-(trifluoromethyl)benzamide]	≥ 1 µM
CC(C)[C@@H](NC(=O)c1cc(C(F)(F)F)ccc1F)C(=O)N1CCC2(CC1)C(=O)N(C)C(=O)N2c1cnn(C)c1 [Example 17, (R)-2-Fluoro-N-(3-methyl-1-(3-methyl-1-(1-methyl-1H-pyrazol-4-yl)-2,4-dioxo-1,3,8-triazaspiro[4.5]decan-8-yl)-1-oxobutan-2-yl)-5-(trifluoromethyl)benzamide]	≥ 1 µM
CCc1ccc(F)c(C(=O)N[C@@H](C(=O)N2CCC3(CC2)C(=O)N(C)C(=O)N3c2ccc3cnc(C)n3c2)C(C)C)c1 [Example 18, (R)-5-Ethyl-2-fluoro-N-(3-methyl-1-(3-methyl-1-(3-methylimidazo[1,5-a]pyridin-6-yl)-2,4-dioxo-1,3,8-triazaspiro[4.5]decan-8-yl)-1-oxobutan-2-yl)benzamide]	< 0.5 µM
Cc1nc2ccc(N3C(=O)N(C)C(=O)C34CCN(C(=O)[C@H](NC(=O)c3cc(C(F)(F)F)ccc3F)C(C)C)CC4)cc2[nH]1 [Example 19, (R)-2-Fluoro-N-(3-methyl-1-(3-methyl-1-(2-methyl-1H-benzo[d]imidazol-6-yl)-2,4-dioxo-1,3,8-triazaspiro[4.5]decan-8-yl)-1-oxobutan-2-yl)-5-(trifluoromethyl)benzamide trifluoroacetic Acid Salt]	≥ 1 µM
CC(C)[C@@H](NC(=O)c1cc(C(F)(F)F)ccc1F)C(=O)N1CCC2(CC1)C(=O)N(C)C(=O)N2c1cnc2[nH]ccc2c1 [Example 20, (R)-2-Fluoro-N-(3-methyl-1-(3-methyl-2,4-dioxo-1-(1H-pyrrolo[2,3-b]pyridin-5-yl)-1,3,8-triazaspiro[4.5]decan-8-yl)-1-oxobutan-2-yl)-5-(trifluoromethyl)benzamide]	< 0.5 µM
CC(C)[C@@H](NC(=O)c1cc(C(F)(F)F)ccc1F)C(=O)N1CCC2(CC1)C(=O)N(C)C(=O)N2c1ccc2c(c1)OCCN2 [Example 21, (R)—N-(1-(1-(3,4-Dihydro-2H-benzo[b][1,4]oxazin-7-yl)-3-methyl-2,4-dioxo-1,3,8-triazaspiro[4.5]decan-8-yl)-3-methyl-1-oxobutan-2-yl)-2-fluoro-5-(trifluoromethyl)benzamide]	< 0.5 µM
CC(C)[C@@H](NC(=O)c1cc(C(F)(F)F)ccc1F)C(=O)N1CCC2(CC1)C(=O)N(C)C(=O)N2c1ccc(=O)[nH]c1 [Example 22, (R)-2-Fluoro-N-(3-methyl-1-(3-methyl-2,4-dioxo-1-(6-oxo-1,6-dihydropyridin-3-yl)-1,3,8-triazaspiro[4.5]decan-8-yl)-1-oxobutan-2-yl)-5-(trifluoromethyl)benzamide]	≥ 1 µM
CC(C)[C@@H](NC(=O)c1cc(C(F)(F)F)ccc1F)C(=O)N1CCC2(CC1)C(=O)N(C)C(=O)N2c1ccc(=O)n(C)c1 [Example 23, (R)-2-Fluoro-N-(3-methyl-1-(3-methyl-1-(1-methyl-6-oxo-1,6-dihydropyridin-3-yl)-2,4-dioxo-1,3,8-triazaspiro[4.5]decan-8-yl)-1-oxobutan-2-yl)-5-(trifluoromethyl)benzamide]	0.5 to 1 µM
CN1C(=O)N(c2ccc(=O)n(C)c2)C2(CCN(C(=O)[C@H](NC(=O)c3cc(C(F)(F)F)ccc3F)C3CCCC3)CC2)C1=O [Example 24, (R)—N-(1-Cyclopentyl-2-(3-methyl-1-(1-methyl-6-oxo-1,6-dihydropyridin-3-yl)-2,4-dioxo-1,3,8-triazaspiro[4.5]decan-8-yl)-2-oxoethyl)-2-fluoro-5-(trifluoromethyl)benzamide]	< 0.5 µM
COc1ccc(N2C(=O)N(C)C(=O)C23CCN(C(=O)[C@H](NC(=O)c2cc(C(F)(F)F)ccc2F)C(C)C)CC3)cn1 [Example 25, (R)-2-Fluoro-N-(1-(1-(6-methoxypyridin-3-yl)-3-methyl-2,4-dioxo-1,3,8-triazaspiro[4.5]decan-8-yl)-3-methyl-1-oxobutan-2-yl)-5-(trifluoromethyl)benzamide]	< 0.5 µM
CC(C)[C@@H](NC(=O)c1cc(C(F)(F)F)ccc1F)C(=O)N1CCC2(CC1)C(=O)N(C)C(=O)N2c1ccc(OC(F)(F)F)cc1 [Example 26, (R)-2-Fluoro-N-(3-methyl-1-(3-methyl-2,4-dioxo-1-(4-(trifluoromethoxy)phenyl)-1,3,8-triazaspiro[4.5]decan-8-yl)-1-oxobutan-2-yl)-5-(trifluoromethyl)benzamide]	< 0.5 µM
CC(C)[C@@H](NC(=O)c1cc(C(F)(F)F)ccc1F)C(=O)N1CCC2(CC1)C(=O)N(C)C(=O)N2c1ccc2occc2c1 [Example 27, (R)-2-Fluoro-N-(3-methyl-1-(3-methyl-2,4-dioxo-1-(5-benzofuran)-1,3,8-triazaspiro[4.5]decan-8-yl)-1-oxobutan-2-yl)-5-(trifluoromethyl)benzamide]	< 0.5 µM
CC(C)[C@@H](NC(=O)c1cc(C(F)(F)F)ccc1F)C(=O)N1CCC2(CC1)C(=O)N(C)C(=O)N2c1ccc2[nH]c(=O)oc2c1 [Example 28, (R)-2-Fluoro-N-(3-methyl-1-(3-methyl-2,4-dioxo-1-(2-oxo-2,3-dihydrobenzo[d]oxazol-6-yl)-1,3,8-triazaspiro[4.5]decan-8-yl)-1-oxobutan-2-yl)-5-(trifluoromethyl)benzamide]	< 0.5 µM
CC(C)[C@@H](NC(=O)c1cc(C(F)(F)F)ccc1F)C(=O)N1CCC2(CC1)C(=O)N(C)C(=O)N2c1ccc2oc(=O)[nH]c2c1 [Example 29, (R)-2-Fluoro-N-(3-methyl-1-(3-methyl-2,4-dioxo-1-(2-oxo-2,3-dihydrobenzo[d]oxazol-5-yl)-1,3,8-triazaspiro[4.5]decan-8-yl)-1-oxobutan-2-yl)-5-(trifluoromethyl)benzamide]	0.5 to 1 µM
CC(C)[C@@H](NC(=O)c1cc(C(F)(F)F)ccc1F)C(=O)N1CCC2(CC1)C(=O)N(C)C(=O)N2c1ccc2c(c1)OCC(=O)N2 [Example 30, (R)-2-Fluoro-N-(3-methyl-1-(3-methyl-2,4-dioxo-1-(3-oxo-3,4-dihydro-2H-benzo[b][1,4]oxazin-7-yl)-1,3,8-triazaspiro[4.5]decan-8-yl)-1-oxobutan-2-yl)-5-(trifluoromethyl)benzamide]	0.5 to 1 µM
CCc1ccc(F)c(C(=O)N[C@@H](C(=O)N2CCC3(CC2)C(=O)N(C)C(=O)N3c2ccc3[nH]c(=O)oc3c2)C(C)C)c1 [Example 31, (R)-5-Ethyl-2-fluoro-N-(3-methyl-1-(3-methyl-2,4-dioxo-1-(2-oxo-2,3-dihydrobenzo[d]oxazol-6-yl)-1,3,8-triazaspiro[4.5]decan-8-yl)-1-oxobutan-2-yl)benzamide]	< 0.5 µM
